Consider five molecules from patent US8557784B2, “Glycyrrhizinates of morphinan derivatives” (Standard Chem. & Pharm. Co., Ltd., priority 2011, dated 2013).

Structures can show the parent of a compound that is named as a salt.

Data set [1] in a line: Solubility in water: water added by degrees until 0.1 g of compound fully dissolves. The conditions noted are these: for Water quantity for dissolving 0.1 g solute: 28° C.
For data set [2] the following is noted: in words; cited from earlier work.
For another data set, the system named is e-NOS. The experiment in a line: e-NOS expression in Wistar rat pulmonary artery (Western blot). In kind it is cell-based. The conditions noted are these: rat pulmonary artery incubated 2 hours with 0.01 mg/ml (10^-5 M); actin as internal control; FIG. 1. Here is the method:
The e-NOS expression of dextromethorphan glycyrrhizinate and dimemorfan glycyrrhizinate are carried out via the following procedures.
The blank control group were not added with dextromethorphan glycyrrhizinate or dimemorfan glycyrrhizinate. After incubated for 2 hours, the pulmonary artery were lysed in ice-cold homogenization buffer. The homogenates were centrifuged at 13,000 rpm for 10 minutes at 4° C. The protein concentration was determined by the method of Bradford. Samples were denatured and subjected to sodium dodecylsulfate polyacrylamide gel electrophoresis (SDS-PAGE) using a 7.5% running gel. Protein were transferred to polyvinylidene difluoride (PVDF) membrane, and the PVDF membrane was incubated successively at room temperature with 5% nonfat milk-0.1% Tween-Tris buffered saline for 1 hour, with rabbit antibodies specific for anti-eNOS for 1 hour, and with horseradish peroxidase conjugated anti-rabbit IgG antibodies (HRP-conjugated anti-rabbit IgG Ab) for 1 hour. After each incubation, the membrane was washed extensively with 0.1% Tween-Tris buffered saline. The immunoreactive bands were detected by ECL reagents.
The expressions of actins are also tested at the same time to be the internal control and are depicted in the middle panel of FIG. 1.
For orientation: Immunoblotting shows a protein as a band on a membrane.

As to `COc1ccc2c(c1)[C@]13CCCC[C@@H]1[C@H](C2)N(C)CC3` [Dextromethorphan hydrobromide], the “Solubility (28° C.)” value in data set [1] was 2.5%.
In the case of `COc1ccc2c(c1)[C@]13CCCC[C@@H]1[C@H](C2)N(C)CC3` [dextromethorphan], the Solubility in water entry in data set [2] is “water insoluble”.
For the molecule Dimemorfan phosphate, in data set [1], the “Solubility (28° C.)” value came out at 2.5% and the “Water quantity for dissolving 0.1 g solute” value was 4 mL.
Regarding dextromethorphan glycyrrhizinate, in the data set on e-NOS, the e-NOS expression entry is “good e-NOS expression”.
As for dimemorfan glycyrrhizinate, in the data set with e-NOS, the e-NOS expression result is recorded as “good e-NOS expression”. Moreover, in data set [1], the “Solubility (28° C.)” value stood at 0.05% and the “Water quantity for dissolving 0.1 g solute” value was determined as 200 mL.
